Results: ChEMBL document CHEMBL4020753, “Inhibition of amyloid β aggregation and protective effect on SH-SY5Y cells by triterpenoid saponins from the cactus Polaskia chichipe” (Bioorg Med Chem, 2017)
Activity calls are given as the source filed them. No cut-off for these calls is given here.

biological target: Amyloid-beta precursor protein (Homo sapiens) (UniProt P05067); test: Inhibition of amyloid beta (1 to 42) (unknown origin)-induced cytotoxicity in human SH-SY5Y cells assessed as increase in cell viability at 12.5 uM after 24 hrs by WST8 assay; type: cell-based
Sequence (P05067 whole entry): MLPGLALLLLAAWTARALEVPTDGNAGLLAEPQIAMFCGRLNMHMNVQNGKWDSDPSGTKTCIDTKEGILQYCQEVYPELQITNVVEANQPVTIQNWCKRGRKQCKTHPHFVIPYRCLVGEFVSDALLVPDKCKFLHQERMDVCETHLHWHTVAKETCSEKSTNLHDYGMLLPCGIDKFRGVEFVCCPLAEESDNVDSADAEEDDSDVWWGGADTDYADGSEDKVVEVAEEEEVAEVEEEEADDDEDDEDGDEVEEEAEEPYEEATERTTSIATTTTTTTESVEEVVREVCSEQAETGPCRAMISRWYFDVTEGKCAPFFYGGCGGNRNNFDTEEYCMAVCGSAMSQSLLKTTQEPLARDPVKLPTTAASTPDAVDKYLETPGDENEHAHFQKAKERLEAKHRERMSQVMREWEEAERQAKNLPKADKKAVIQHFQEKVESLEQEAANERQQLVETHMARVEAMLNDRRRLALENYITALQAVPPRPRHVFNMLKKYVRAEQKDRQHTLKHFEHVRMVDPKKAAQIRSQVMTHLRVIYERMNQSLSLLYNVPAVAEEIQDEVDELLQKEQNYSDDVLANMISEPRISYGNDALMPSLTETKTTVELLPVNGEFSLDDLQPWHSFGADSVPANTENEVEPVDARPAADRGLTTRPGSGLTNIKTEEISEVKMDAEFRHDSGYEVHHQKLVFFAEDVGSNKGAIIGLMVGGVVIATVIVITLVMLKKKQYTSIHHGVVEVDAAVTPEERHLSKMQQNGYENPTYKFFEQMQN

**Q.** `CC1(C)CC[C@]2(C(=O)O)[C@@H](O)C[C@]3(C)C(=CC[C@@H]4[C@@]5(C)CC[C@H](O)C(C)(C)[C@@H]5CC[C@]43C)[C@@H]2C1` was tested. Which inhibition did it give?
**A.** inactive

**Q.** Which inhibition does the source give for `CC1(C)C[C@H](O)[C@]2(CO)[C@@H](O)C[C@]3(C)C(=CC[C@@H]4[C@@]5(C)CC[C@H](O)C(C)(C)[C@@H]5CC[C@]43C)[C@@H]2C1` here?
**A.** inactive

**Q.** With `CC1(C)CC[C@]2(C(=O)O)CC[C@]3(C)C(=CC[C@@H]4[C@@]5(C)CC[C@H](O)C(C)(C)[C@@H]5CC[C@]43C)[C@@H]2C1` as the compound, how does the inhibition read?
**A.** inactive

**Q.** `O=C(OC[C@H]1O[C@@H](OC(=O)c2cc(O)c(O)c(OC(=O)c3cc(O)c(O)c(O)c3)c2)[C@H](OC(=O)c2cc(O)c(O)c(OC(=O)c3cc(O)c(O)c(O)c3)c2)[C@@H](OC(=O)c2cc(O)c(O)c(OC(=O)c3cc(O)c(O)c(O)c3)c2)[C@@H]1OC(=O)c1cc(O)c(O)c(OC(=O)c2cc(O)c(O)c(O)c2)c1)c1cc(O)c(O)c(OC(=O)c2cc(O)c(O)c(O)c2)c1` was tested. Which inhibition did it give?
**A.** inactive

**Q.** For `CC(=O)OC[C@]12[C@@H](OC(C)=O)CC(C)(C)C[C@H]1C1=CC[C@@H]3[C@@]4(C)CC[C@H](O)C(C)(C)[C@@H]4CC[C@@]3(C)[C@]1(C)C[C@@H]2OC(C)=O`, which inhibition is on record?
**A.** inactive

biological target: Amyloid-beta precursor protein (Homo sapiens) (UniProt P05067); test: Inhibition of amyloid beta (1 to 42) (unknown origin)-induced cytotoxicity in human SH-SY5Y cells assessed as cell viability at 6.25 uM after 24 hrs by WST8 assay (reference value: 63.1 +/- 5.6%); type: cell-based

**Q.** With `O=C(OC[C@H]1O[C@@H](OC(=O)c2cc(O)c(O)c(OC(=O)c3cc(O)c(O)c(O)c3)c2)[C@H](OC(=O)c2cc(O)c(O)c(OC(=O)c3cc(O)c(O)c(O)c3)c2)[C@@H](OC(=O)c2cc(O)c(O)c(OC(=O)c3cc(O)c(O)c(O)c3)c2)[C@@H]1OC(=O)c1cc(O)c(O)c(OC(=O)c2cc(O)c(O)c(O)c2)c1)c1cc(O)c(O)c(OC(=O)c2cc(O)c(O)c(O)c2)c1` as the compound, how does the Activity read?
**A.** 78.8%

biological target: Amyloid-beta precursor protein (Homo sapiens) (UniProt P05067); test: Inhibition of amyloid beta (1 to 42) (unknown origin)-induced cytotoxicity in human SH-SY5Y cells assessed as increase in cell viability at 50 uM after 24 hrs by WST8 assay; type: cell-based

**Q.** How did the “protection from amyloid beta cytotoxicity (active/not active)” value (from here on “protection … (active/not active)”) turn out when `CC1(C)CC[C@]2(C(=O)O[C@@H]3O[C@H](CO)[C@@H](O)[C@H](O)[C@H]3O)CC[C@]3(C)C(=CC[C@@H]4[C@@]5(C)CC[C@H](O[C@@H]6O[C@H](C(=O)O)[C@@H](O)[C@H](O)[C@H]6O[C@@H]6O[C@H](CO)[C@@H](O)[C@H](O)[C@H]6O[C@@H]6OC[C@@H](O)[C@H](O)[C@H]6O)C(C)(C)[C@@H]5CC[C@]43C)[C@@H]2C1` was run?
**A.** Active

**Q.** For `C[C@@H]1O[C@@H](OC(=O)[C@]23CCC(C)(C)C[C@H]2C2=CC[C@@H]4[C@@]5(C)CC[C@H](O[C@@H]6O[C@H](C(=O)O)[C@@H](O)[C@H](O[C@@H]7O[C@@H](C)[C@H](O)[C@@H](O)[C@H]7O)[C@H]6O[C@@H]6O[C@H](CO)[C@@H](O)[C@H](O)[C@H]6O)C(C)(C)[C@@H]5CC[C@@]4(C)[C@]2(C)C[C@@H]3O)[C@H](O)[C@H](O)[C@H]1O`, which “protection … (active/not active)” value is on record?
**A.** Active

**Q.** `C[C@@H]1O[C@@H](OC(=O)[C@]23CCC(C)(C)C[C@H]2C2=CC[C@@H]4[C@@]5(C)CC[C@H](O[C@@H]6O[C@H](C(=O)O)[C@@H](O)[C@H](O)[C@H]6O[C@@H]6O[C@H](CO)[C@@H](O)[C@H](O)[C@H]6O[C@@H]6OC[C@@H](O)[C@H](O)[C@H]6O)C(C)(C)[C@@H]5CC[C@@]4(C)[C@]2(C)C[C@@H]3O)[C@H](O)[C@H](O)[C@H]1O` was tested. Which “protection … (active/not active)” value did it give?
**A.** Active

**Q.** How did the “protection … (active/not active)” value turn out when `CC(=O)OC[C@]12[C@@H](OC(C)=O)CC(C)(C)C[C@H]1C1=CC[C@@H]3[C@@]4(C)CC[C@H](O[C@@H]5O[C@H](C(=O)O)[C@@H](O)[C@H](O)[C@H]5O[C@@H]5O[C@H](CO)[C@@H](O)[C@H](O)[C@H]5O[C@@H]5O[C@@H](C)[C@H](O)[C@@H](O)[C@H]5O)C(C)(C)[C@@H]4CC[C@@]3(C)[C@]1(C)C[C@@H]2OC(C)=O` was run?
**A.** inactive

**Q.** Which “protection … (active/not active)” value does the source give for `C[C@@H]1O[C@@H](O[C@H]2[C@H](O)[C@@H](C(=O)O)O[C@@H](O[C@H]3CC[C@]4(C)[C@H]5CC=C6[C@@H]7CC(C)(C)CC[C@]7(C(=O)O[C@@H]7O[C@H](CO)[C@@H](O)[C@H](O)[C@H]7O)CC[C@@]6(C)[C@]5(C)CC[C@H]4C3(C)C)[C@@H]2O[C@@H]2O[C@H](CO)[C@@H](O)[C@H](O)[C@H]2O)[C@H](O)[C@H](O)[C@H]1O` here?
**A.** Active

biological target: Amyloid-beta precursor protein (Homo sapiens) (UniProt P05067); test: Inhibition of amyloid beta (1 to 42) (unknown origin)-induced cytotoxicity in human SH-SY5Y cells assessed as cell viability at 50 uM after 24 hrs by WST8 assay (reference value: 63.1 +/- 5.6%); type: cell-based

**Q.** How did the Activity turn out when `CC(=O)OC[C@]12[C@@H](OC(C)=O)CC(C)(C)C[C@H]1C1=CC[C@@H]3[C@@]4(C)CC[C@H](O[C@@H]5O[C@H](C(=O)O)[C@@H](O)[C@H](O[C@@H]6O[C@@H](C)[C@H](O)[C@@H](O)[C@H]6O)[C@H]5O[C@@H]5O[C@H](CO)[C@@H](O)[C@H](O)[C@H]5O)C(C)(C)[C@@H]4CC[C@@]3(C)[C@]1(C)C[C@@H]2OC(C)=O` was run?
**A.** 87.4%

**Q.** How did the Activity turn out when `COC(=O)[C@H]1O[C@@H](O[C@H]2CC[C@]3(C)[C@H]4CC=C5[C@@H]6CC(C)(C)C[C@H](OC(C)=O)[C@]6(COC(C)=O)[C@@H](OC(C)=O)C[C@@]5(C)[C@]4(C)CC[C@H]3C2(C)C)[C@H](O[C@@H]2O[C@H](CO)[C@@H](O)[C@H](O)[C@H]2O)[C@@H](O[C@@H]2O[C@@H](C)[C@H](O)[C@@H](O)[C@H]2O)[C@@H]1O` was run?
**A.** 79.2%

**Q.** `COC(=O)[C@H]1O[C@@H](O[C@H]2CC[C@]3(C)[C@H]4CC=C5[C@@H]6CC(C)(C)C[C@H](OC(C)=O)[C@]6(COC(C)=O)[C@@H](OC(C)=O)C[C@@]5(C)[C@]4(C)CC[C@H]3C2(C)C)[C@H](O[C@@H]2O[C@H](CO)[C@@H](O)[C@H](O)[C@H]2O[C@@H]2OC[C@@H](O)[C@H](O)[C@H]2O)[C@@H](O)[C@@H]1O` was tested. Which Activity did it give?
**A.** 84.3%

**Q.** Which Activity does the source give for `CC(=O)OC[C@]12[C@@H](OC(C)=O)CC(C)(C)C[C@H]1C1=CC[C@@H]3[C@@]4(C)CC[C@H](O[C@@H]5O[C@H](C(=O)O)[C@@H](O)[C@H](O)[C@H]5O[C@@H]5O[C@H](CO)[C@@H](O)[C@H](O)[C@H]5O[C@@H]5OC[C@@H](O)[C@H](O)[C@H]5O)C(C)(C)[C@@H]4CC[C@@]3(C)[C@]1(C)C[C@@H]2OC(C)=O` here?
**A.** 83.7%
